How the values were obtained:
[1] = test system: other 2OG oxygenases (off-target sites commonly inhibited by existing PHD inhibitors); assay: Selectivity versus other 2OG oxygenases / off-target sites (FIG. 14); type: biochemical
HIF1-α in HEK293 T cells = assay: Immunoblots of HEK293 T cells; type: cell-based; settings: HEK293 T cells, 0.5, 1, 5, 10, 20, 50 and 100 μM, 18 hours
Procedure: Cells were grown to 90% confluency.
Protocols for cell culture and immunoblotting were performed using the established methods.

[2] = target: KDM4A: lysine specific demethylase 4A (Homo sapiens (Human), UniProt O75164); assay: KDM4A LCMS demethylation assay
Procedure: (§2) 4 ml of enzyme reaction were injected and loaded onto a ZORBAX RRHD Eclipse Plus C18 column (Agilent Technologies, CA, US). Solvent A consisted of LCMS grade water containing 0.1% (v/v) formic acid and solvent B consisted of acetonitrile containing 0.1% (v/v) formic acid. […] The mass spectrometer was operated in the positive ion mode with a drying gas temperature of 280° C., drying gas flow rate of 13 L/min, nebulizer pressure of 40 psig, sheath gas temperature of 350° C., sheath gas flow rate of 12 L/min, capillary voltage of 4000 V, nozzle voltage of 1000 V. All acquired data were analyzed using Agilent MassHunter Qualitative Analysis (Version B.07.00) software.

[3] = target: KDM5B: lysine specific demethylase 5B (Homo sapiens (Human), UniProt Q9UGL1); assay: KDM5B LCMS demethylation assay
Procedure: KDM5B enzyme reactions were performed under optimized buffer conditions (50 mM MES pH 7.0, 50 mM NaCl, 1 mM TCEP). […] The enzyme reaction was progressed for 30 minutes, and the reaction stopped by addition of formic acid to a final concentration of 1% (v/v). Control reactions included a 0.5% DMSO control and a reaction with a known inhibitor of KDM5B (10 mM KDOAM25, ^i).
as §2

[4] = target: KDM6B: lysine specific demethylase 6B (Homo sapiens (Human), UniProt O15054); assay: KDM6B LCMS demethylation assay
Procedure: The peptide substrate for KDM5B was a 21-mer histone-H3 peptide (ARTK(me3)[sequence]), as synthesized by Peptide Protein Research (Hampshire, UK). The KDM6B peptide substrate was a 17-mer histone-H3 peptide ([sequence](me3)[sequence]), as synthesized by GL Biochem (Shanghai) Ltd (Shanghai, China).
KDM6B reactions were performed under optimized buffer conditions (50 mM MES pH 7.0). […] The enzyme reaction was progressed for 30 minutes and the reaction stopped by addition of formic acid to a final concentration of 1% (v/v). Control reactions included a 0.5% DMSO control and a reaction with a known inhibitor of KDM6B (10 mM GSKJ1,^j).
as §2

PHD2 = PHD2 (Homo sapiens (Human), UniProt Q9GZT9); assay: PHD2 RF-MS (RapidFire LC-MS) hydroxylation assay; type: biochemical
Procedure: In brief, cDNA encoding for the catalytic domain of tPHD2 (181-426 residues) was cloned into the pET28a (+)/pET24a (+) vectors (Novagen), to enable production of tPHD2 (residues 181-426) protein with/without an N-terminal His6-tag. The tPHD2 (residues 181-426) encoding construct was transformed into the Escherichia coli BL21 DE3 cell line; protein production was induced with 0.5 mM […] (3-5 hr at 28° C.). […] The protein was exchanged into 50 mM Tris-HCl buffer (pH 7.5) and concentrated to % 40 mg/ml.
Tris(hydroxymethyl)aminomethane was from Fisher. Ferrous ammonium sulfate (FAS), 2-oxoglutarate (2OG) and L-ascorbic acid were from Sigma Aldrich; solutions of these were prepared freshly each day. All inhibition assays were carried out in 384-well polypropylene plates (Greiner Bio-One). PHD2 assays were performed in assay buffer (50 mM Tris. Cl pH 7.5, 50 mM NaCl). […] The final assay concentration of DMSO was kept constant at 0.5%. PHD2 protein was prepared at a concentration of 300 nM in assay buffer and 25 μl dispensed across each 384-well assay plate. The PHD2 solution was allowed to equilibrate with the inhibitors for 15 minutes at room temperature; the enzyme reaction then initiated by dispense of 25 μl of substrate (20 μM FAS, 200 µM L-ascorbic acid, 10 μM CODD peptide and 20 μM 2OG in the assay buffer. Enzyme reactions were allowed to proceed for 20 minutes at room temperature and the reaction terminated by addition of 10% formic acid (5 μl). Assay plates were then transferred to a RapidFire RF360 sampling robot (Agilent) connected to an Agilent 6530 accurate mass quadrupole-time-of-flight (Q-TOF) mass spectrometer. Assay samples were aspirated under vacuum and loaded onto a C4 solid phase extraction (SPE) cartridge. After loading the C4 SPE was washed with 0.1% formic acid in water to remove non-volatile buffer salts and then peptide was eluted from the SPE with 85% acetonitrile, 15% water containing 0.1% formic acid onto the mass spectrometer. Peptide charge states were monitored in positive mode. Ion chromatogram data were extracted for the +2 charge state and peak area data integrated using RapidFire Integrator software (Agilent). % conversion of the CODD peptide substrate to the +16 hydroxylated peptide was calculated using the equation: % conversion=100×hydroxylated/(hydroxylated+non-hydroxylated peptide). IC50 values were determined from non-linear regression plots using GraphPad prism.
Example 158—Structure activity relationship (SAR) studies for PHD inhibition SAR studies for PHD inhibition were carried out on the compounds of the invention. Compounds were screened against PHD2 using the RF-MS hydroxylation assay.

HIF1-α in Hep3B cells = assay: Immunoblots of Hep3B cells; type: cell-based; settings: 100 μM and 20 μM, 3 hours
Procedure: Example 159—Immunoblots of Hep3B cells treated with compounds of the invention Hep3B cells were treated with 117, 119, 122 and 123 of the invention (Examples 93, 95, 98 and 99) at 100 μM (A) and 20 μM (B) PHD inhibitors for 3 hours. The blots show protein levels of HIF1-α and β-actin at the 3rd hour after treatment.

human THP-1 cells = assay: Proliferation and apoptosis of THP-1 cells; type: cell-based
From the text: (§1) Viable cells were counted by trypan blue exclusion at the indicated time points. To analyse cells undergoing apoptosis, cells were suspended in binding buffer containing PE-conjugated Annexin-V or FITC-conjugated Annexin-V, and either PI or DAPI.
To determine consequences of Daprodustat (2) and IOX5 (68, example 46) treatment on AML cells driven by the MLL-AF9→MEIS1/HOXA9 axis, mouse iMLL-AF9-and Meis1Hoxa9-transformed AML cells were employed, as well as human THP-1 cells, which harbour the MIL-AF9 translocation. […] Thus, providing compelling evidence that PHD inhibition compromises AML cells driven by the MLL-AF9→MEIS1/HOXA9 axis.

[5] = test system: MV411 AML cells in NBSGW recipient mice; assay: MV411 xenotransplantation in NBSGW mice, combination with Venetoclax; type: in vivo, mouse; settings: 14 days treatment; IOX5 i.p. twice daily, Venetoclax o.g. once daily
Procedure: 14 days following transplantation, recipient mice were treated with IOX5 (68, example 46), Venetoclax or vehicle control. Dosing regimen consisted of 2× daily via i.p. injection (IOX5 (68, example 46) or vehicle) and/or 1× daily via o.g. (Venetoclax or vehicle). […] (E-G) Percentage of human CD45+CD33+CD14+ cells in the BM, spleen and liver, respectively (n=5). (H) Survival curve of mice treated with IOX5 (68, example 46), Venetoclax, IOX5 (68, example 46)+Venetoclax or vehicle control (n=6-7). (I-J) Proliferation and Annexin-V+DAPI+analyses, respectively, of THP-1 cells treated with Ven, IOX5, FIH inhibitor (FIHi; DM-NOFD), IOX5 (68, example 46)+FIHi, IOX5 (68, example 46)+Ven, FIHi+Ven, IOX5 (68, example 46)+FIHi+Ven or vehicle control (n=6). Statistical significance represented as in (A-B). Data represent mean±SEM; *p<0.05; ** p<0.01; *** p<0.001; **** p<0.0001.
100,000 THP-1 cells, 100,000 OCI-AM3 cells or 100,000 MV411 cells (for combination experiments) were tail vein injected into non-irradiated 10-to 12-week-old mixed gender NBSGW mice and began drug treatment 14 days after transplantation. […] Mice were culled 5 weeks after transplantation.
Mice in combination treatment experiments with Venetoclax (ABT-199) (MCE) were dosed once daily with 100 mg/kg via oral gavage (o.g.).
Further to findings in Example 170, the efficacy of IOX5 (68, example 46)+Venetoclax combination in vivo was investigated (FIG. 38D). MV411 AML cells were engrafted (with MLL-AF4 and FLT3-ITD mutation) and the recipient mice were treated with a vehicle, IOX5 (68, example 46), Venetoclax, and a combination of IOX5 (68, example 46)+Venetoclax.

[6] = test system: THP-1, MOLM13, OCI-AML3 and MV411 cells; assay: Proliferation and apoptosis of human AML cell lines THP-1, MOLM13, OCI-AML3 and MV411; type: cell-based; settings: 50 μM, single agent
Procedure: (A-B) Proliferation and apoptosis of human AML cell lines THP-1, MOLM13, OCI-AML3 and MV411 treated with vehicle control and 50 μM Molidustat (5). Data represent mean±SEM; **** p<0.0001.
(A-B) Proliferation and apoptosis of human AML cell lines MOLM-13, OCI-AML3, MV411 and THP-1 treated with vehicle control, 50 μM Daprodustat (2), 50 μM IOX5 (68, example 46), 0.1 μM Venetoclax (MOLM-13 and MV411), 0.01 μM Venetoclax (OCI-AML3 and THP-1) and combination therapy. (C-D) Early-([…]) and late stage (PI^+ Annexin^+) apoptosis of human AML patient samples treated with vehicle control, 50 μM Daprodustat (2), 50 μM IOX5 (68, example 46), 0.01 μM Venetoclax and combination therapy. Data represent mean±SEM; * p<0.05; ** p<0.01, *** p<0.001, **** p<0.0001.
as §1

Sequence of PHD2 (Q9GZT9 181-426): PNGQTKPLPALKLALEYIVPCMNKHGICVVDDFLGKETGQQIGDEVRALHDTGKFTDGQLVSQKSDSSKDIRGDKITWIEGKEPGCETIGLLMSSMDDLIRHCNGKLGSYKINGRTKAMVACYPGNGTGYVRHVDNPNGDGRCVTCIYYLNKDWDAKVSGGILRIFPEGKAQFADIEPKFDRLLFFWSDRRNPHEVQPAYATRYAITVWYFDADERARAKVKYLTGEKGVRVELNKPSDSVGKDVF
Sequence of KDM6B: lysine specific demethylase 6B (O15054 1141-1590): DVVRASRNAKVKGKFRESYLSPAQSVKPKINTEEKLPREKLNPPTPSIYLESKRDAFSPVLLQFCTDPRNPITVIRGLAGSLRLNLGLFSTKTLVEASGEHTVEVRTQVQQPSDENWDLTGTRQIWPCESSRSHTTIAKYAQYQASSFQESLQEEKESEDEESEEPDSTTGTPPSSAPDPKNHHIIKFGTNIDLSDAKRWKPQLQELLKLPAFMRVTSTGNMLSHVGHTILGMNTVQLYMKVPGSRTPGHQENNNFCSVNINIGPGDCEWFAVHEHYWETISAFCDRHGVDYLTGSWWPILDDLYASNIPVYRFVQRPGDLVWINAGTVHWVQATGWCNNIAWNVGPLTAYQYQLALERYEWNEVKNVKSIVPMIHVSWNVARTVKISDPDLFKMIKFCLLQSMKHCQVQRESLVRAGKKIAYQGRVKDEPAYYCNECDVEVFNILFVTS
Sequence of KDM5B: lysine specific demethylase 5B (Q9UGL1 1-822): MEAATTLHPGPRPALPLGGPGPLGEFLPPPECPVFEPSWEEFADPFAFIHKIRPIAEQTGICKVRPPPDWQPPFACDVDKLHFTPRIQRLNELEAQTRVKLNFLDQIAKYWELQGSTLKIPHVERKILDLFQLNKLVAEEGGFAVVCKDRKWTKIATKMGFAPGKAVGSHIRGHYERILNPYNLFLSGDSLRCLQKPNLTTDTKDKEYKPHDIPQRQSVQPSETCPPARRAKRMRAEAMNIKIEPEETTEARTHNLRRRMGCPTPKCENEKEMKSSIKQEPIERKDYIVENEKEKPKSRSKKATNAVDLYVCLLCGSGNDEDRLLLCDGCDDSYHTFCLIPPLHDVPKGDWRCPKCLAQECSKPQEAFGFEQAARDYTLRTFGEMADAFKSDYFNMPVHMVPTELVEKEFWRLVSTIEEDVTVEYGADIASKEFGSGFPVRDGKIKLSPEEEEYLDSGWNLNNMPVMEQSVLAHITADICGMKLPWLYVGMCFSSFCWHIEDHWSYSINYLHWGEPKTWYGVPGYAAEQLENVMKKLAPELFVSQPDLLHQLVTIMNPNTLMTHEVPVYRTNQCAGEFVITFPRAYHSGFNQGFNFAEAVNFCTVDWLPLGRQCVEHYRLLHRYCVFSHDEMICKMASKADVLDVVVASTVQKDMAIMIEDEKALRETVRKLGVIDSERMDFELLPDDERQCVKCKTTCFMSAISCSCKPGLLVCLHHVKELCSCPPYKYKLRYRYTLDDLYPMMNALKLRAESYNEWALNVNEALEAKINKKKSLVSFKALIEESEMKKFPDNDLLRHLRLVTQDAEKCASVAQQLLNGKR
Sequence of KDM4A: lysine specific demethylase 4A (O75164 1-359): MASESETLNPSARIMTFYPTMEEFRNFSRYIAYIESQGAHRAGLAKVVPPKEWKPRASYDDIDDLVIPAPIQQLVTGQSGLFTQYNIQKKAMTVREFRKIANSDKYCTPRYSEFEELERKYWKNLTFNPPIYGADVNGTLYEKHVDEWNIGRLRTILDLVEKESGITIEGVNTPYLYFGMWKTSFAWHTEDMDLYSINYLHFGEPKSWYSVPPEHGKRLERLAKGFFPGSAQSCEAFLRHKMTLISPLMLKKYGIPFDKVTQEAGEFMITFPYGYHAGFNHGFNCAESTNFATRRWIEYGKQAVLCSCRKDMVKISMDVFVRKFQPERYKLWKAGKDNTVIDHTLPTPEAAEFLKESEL

| SMILES | IC50 (PHD2) [µM] | protein level of HIF1-α (immunoblot) (HIF1-α in Hep3B cells) | other results |
| --- | --- | --- | --- |
| O=C(NCC1CCC(C(F)(F)F)CC1)c1cnc(-n2cccn2)cc1O (stereo not shown) [Compound 68, 4-Hydroxy-6-(1H-pyrazol-1-yl)-N-((4-(trifluoromethyl)cyclohexyl)methyl) nicotinamide] |  |  | IC50 for off-target sites [1]: very high IC50; protein level of HIF1-α (immunoblot) (HIF1-α in HEK293 T cells): increase cellular HIF-1α; IC50 [2]: > 100 µM; IC50 [3]: > 100 µM; IC50 [4]: > 100 µM |
| N#Cc1cnc(-n2cc(C(=O)NCc3ccc(-c4ccc(C(=O)O)cc4)nc3)cn2)nc1O [Compound 162, 4-(5-((1-(5-cyano-4-hydroxypyrimidin-2-yl)-1H-pyrazole-4-carboxamido)methyl)pyridin-2-yl)benzoic acid] | 1 to 10 |  |  |
| COc1ccc([C@H](C)NC(=O)c2cnc3c(c(C)nc4cc(C)nn43)c2O)cc1 [Compound 180, (S)-6-hydroxy-N-(1-(4-methoxyphenyl)ethyl)-2,5-dimethylpyrazolo[1,5-a]pyrido[3,2-e]pyrimidine-7-carboxamide] | 0.001 to 1 |  |  |
| COC(=O)C(=O)N[C@H](Cc1ccccc1)C(=O)OC [DM-NOFD, dimethyl N-oxalyl-D-phenylalanine] |  |  | proliferation and survival (Annexin-V+DAPI+) of AML cells (human THP-1 cells; THP-1 cells, FIH inhibitor DM-NOFD alone or combined): no impact on proliferation and survival of AML cells |
| CC1(C)CCC(CN2CCN(c3ccc(C(=O)NS(=O)(=O)c4ccc(NCC5CCOCC5)c([N+](=O)[O-])c4)c(Oc4cnc5[nH]ccc5c4)c3)CC2)=C(c2ccc(Cl)cc2)C1 [Venetoclax, venetoclax, reference compound] |  |  | leukaemic burden [5]: decreased leukaemic burden; survival of recipient mice [5]: extended survival of the recipient mice |
| O=c1c(-n2ccnn2)c[nH]n1-c1cc(N2CCOCC2)ncn1 [molidustat] |  |  | cell death (apoptosis) [6]: induced cell death; proliferation [6]: reduced proliferation |
| Cc1nc(C(=O)NCC(=O)O)c(O)c2ccc(Oc3ccccc3)cc12 [roxadustat] |  |  | proliferation (human THP-1 cells; THP-1, 50 μM): strong anti-leukaemic activity |

Now from value to molecule, other results behind:

| IC50 (PHD2) [µM] | SMILES | protein level of HIF1-α (immunoblot) (HIF1-α in Hep3B cells) | other results |
| --- | --- | --- | --- |
| 0.001 to 1 | O=C(NCc1ccc(-c2ccccc2)cc1)c1cnc2c(cnc3ccnn32)c1O [Compound 117, N-([1,1′-Biphenyl]-4-ylmethyl)-6-hydroxypyrazolo[1,5-a]pyrido[3,2-e]pyrimidine-7-carboxamide] | increase HIF-1α |  |
| 0.001 to 1 | O=C(Nc1ccc(-c2ccccc2)cc1)c1cnc2c(cnc3ccnn32)c1O [Compound 119, N-([1,1′-Biphenyl]-4-yl)-6-hydroxypyrazolo[1,5-a]pyrido[3,2-e]pyrimidine-7-carboxamide] | increase HIF-1α |  |
| 0.001 to 1 | Cc1cc2nc(C)c3c(O)c(C(=O)NCc4ccc(-c5ccccc5)cc4)cnc3n2n1 [Compound 122, N-([1,1′-Biphenyl]-4-ylmethyl)-6-hydroxy-2,5-dimethylpyrazolo[1,5-a]pyrido[3,2-e]pyrimidine-7-carboxamide] | increase HIF-1α |  |
| 0.001 to 1 | Cc1cc2nc(C)c3c(O)c(C(=O)NCc4ccc(C(F)(F)F)cc4)cnc3n2n1 [Compound 123, 6-Hydroxy-2,5-Dimethyl-N-(4-(trifluoromethyl)benzyl) pyrazolo[1,5-a]pyrido[3,2-e]pyrimidine-7-carboxamide] | increase HIF-1α |  |
| 1 to 10 | Cc1cc2nc(C)c3c(O)c(C(=O)NCc4ccc(-c5cccc(N6CCOCC6)c5)nc4)cnc3n2n1 [Compound 176, 6-hydroxy-2,5-dimethyl-N-((6-(3-morpholinophenyl)pyridin-3-yl)methyl) pyrazolo[1,5-a]pyrido[3,2-e]pyrimidine-7-carboxamide] |  |  |

Source: patent publication US20260027096A1, “PHD INHIBITORS” (Oxford University Innovation Limited, priority 2023, published 2026)
